Source: patent US10351530B2, “Arylcyclohexyl pyrazoles as NRF2 regulators” (GlaxoSmithKline Intellectual Property Development Limited, priority 2015, dated 2019)

Experiments:
Keap1/NRF2 = molecular target: T1, Keap1/NRF2 (Homo sapiens, UniProt Q14145); assay: NRF2-Keap1 FP Assay (Kelch domain (321-609) of Keap1, TAMRA-labeled NRF2 ETGE peptide); type: binding; conditions: Keap1 (321-609) 20 nM, Tamra labeled peptide 8 nM
T1 construct: Keap1 (321-609) is diluted to 40 nM (2×) in 1× assay buffer
Outline: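 Fluorescence polarization competition: Keap1 Kelch (321-609) at 20 nM final and TAMRA-ETGE 16-mer peptide at 8 nM final with 3-fold compound dilutions, 1 h room temperature in Tris pH 8.0 buffer (NaCl, MgCl2, DTT, CHAPS, BSA). mP normalized to protein+peptide and peptide-alone controls; pIC50 by four-parameter fit.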

NRF2/Keap1 = molecular target: T2, NRF2/Keap1 (Homo sapiens, UniProt Q14145); assay: NRF2-Keap1 TR-FRET Assay (full length NRF2 and full length Keap1); type: binding; conditions: 25 nM Keap1-FlagHis, 50 nM biotin-NRF2 added
T2 construct: full length NRF2 protein and full length Keap1 protein (Keap1 exists a dimer) are used
Text: In the NRF2-Keap1 TR-FRET (time-resolved fluorescence resonance energy transfer) assay, full length NRF2 protein and full length Keap1 protein (Keap1 exists a dimer) are used. The assay detects the ability of compound to displace the binding of FlagHis-tagged Keap1 with biotinylated, Avi-tagged NRF2 protein. Biotin-NRF2 binds to streptavidin-europium (a component of the detection mix) and Keap1-FlagHis is recognized by anti-Flag APC (allophycocyanin) antibody (also a component of the detection mix). If binding occurs between the two proteins, there will be an energy transfer from the Eu+3 (donor) at 615 nm to the APC (acceptor) at 665 nm. A potential Keap1 inhibitor will cause a reduction in the TR-FRET signal by interfering with the binding of Keap1 to NRF2.
One hundred nanoliters of 100× compound dose response curves (serial 3-fold dilutions) in DMSO are stamped using an Echo liquid handling system (Labcyte) into 384-well, low volume, black assay plates (Greiner, #784076), with DMSO in columns 6 and 18. The top concentration of compound is located in columns 1 and 13. All reagents are diluted in assay buffer (50 mM Tris, pH 8.0, 5 mM MgCl2, 100 mM NaCl, 0.005% BSA, 1 mM DTT, and 2 mM CHAPS). The BSA, DTT, and CHAPS are added to the assay buffer on the day of assay. Using a Multidrop Combi (Thermo Electron Corporation) equipped with a metal tip dispenser, 5 ul of 25 nM Keap1-FlagHis protein is added to all wells of the compound plate, with the exception of the wells in column 18. Wells in column 18 receive 5 ul of assay buffer instead. Plates are centrifuged at 500 rpm for 1 minute, covered with a plate lid, and incubated at 37° C. for 2.25 hours. Plates are then removed from the incubator and allowed to cool to RT for 15 minutes. Five microliters of 50 nM biotin-NRF2 protein is then added to all wells of the plates and the plates are spun at 500 rpm for 1 minute, followed by incubating at 4° C. for 1.25 hours. The plates are then allowed to warm to RT for 15 minutes, followed by the addition of 10 ul of detection mix (1 nM Streptavidin Eu+ W1024 and 5 ug/ml mouse anti-DYKDDDDK IgG conjugated to SureLight APC antibody; both from Columbia Biosciences) to all wells. Plates are spun at 500 rpm for 1 minute, incubated for 1 hour at RT, and read on an Envision plate reader using a 320 nm excitation filter and 615 nm and 665 nm emission filters. Compound response (% inhibition) and potency (pIC50) are calculated based on the ratio of the two emissions (665 nm/615 nm) and then the transformed data is normalized against controls in the assay (control 1=1% DMSO in the presence of NRF2 and Keap1 protein and control 2=1% DMSO in the absence of protein). Data analysis is handled using the software package Abase XE (Surrey, United Kingdom). The % inhibition values are calculated from the ratio (transformed) data by the equation: 100−(100*(compound response-average control 2)/(average control 1−average control 2)).
For calculation of pIC50s, Abase XE uses a four parameter equation.

T2 sequence (Q14145 whole entry): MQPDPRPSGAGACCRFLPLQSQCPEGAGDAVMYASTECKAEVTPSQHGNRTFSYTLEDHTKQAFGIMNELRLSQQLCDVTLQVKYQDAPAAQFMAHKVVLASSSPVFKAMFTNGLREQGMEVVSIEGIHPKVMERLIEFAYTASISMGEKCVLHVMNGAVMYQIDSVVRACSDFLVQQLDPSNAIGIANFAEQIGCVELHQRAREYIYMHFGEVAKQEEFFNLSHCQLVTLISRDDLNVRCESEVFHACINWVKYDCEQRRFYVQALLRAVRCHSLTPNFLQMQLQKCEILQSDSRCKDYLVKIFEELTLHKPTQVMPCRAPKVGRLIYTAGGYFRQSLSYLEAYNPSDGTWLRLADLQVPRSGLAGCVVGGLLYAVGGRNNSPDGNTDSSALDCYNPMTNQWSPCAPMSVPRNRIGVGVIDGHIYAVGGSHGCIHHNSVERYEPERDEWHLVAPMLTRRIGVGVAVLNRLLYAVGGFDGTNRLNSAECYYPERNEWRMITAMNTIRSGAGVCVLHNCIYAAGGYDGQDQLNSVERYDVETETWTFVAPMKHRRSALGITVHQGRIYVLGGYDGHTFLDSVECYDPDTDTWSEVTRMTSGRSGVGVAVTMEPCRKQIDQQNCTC
T1 sequence (Q14145 321-609): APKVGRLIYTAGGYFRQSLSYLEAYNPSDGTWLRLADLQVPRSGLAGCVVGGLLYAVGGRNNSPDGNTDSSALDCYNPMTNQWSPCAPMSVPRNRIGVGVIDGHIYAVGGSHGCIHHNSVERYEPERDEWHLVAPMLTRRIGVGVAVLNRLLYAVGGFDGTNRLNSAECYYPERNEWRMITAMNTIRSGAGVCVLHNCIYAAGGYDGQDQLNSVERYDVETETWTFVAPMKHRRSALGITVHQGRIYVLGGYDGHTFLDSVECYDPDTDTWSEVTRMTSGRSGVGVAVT

IC50 (Keap1/NRF2) | IC50 (NRF2/Keap1) | SMILES
100 to 1000 nM | 1000 to 10000 nM | O=C(O)c1cnn(-c2cccc(C3=CC(C(=O)N4CCCCCC4)CCC3)c2)c1C1CC1 (stereo not drawn) [Example 19, 1-(5′-(Azepane-1-carbonyl)-2′,3′,4′,5′-tetrahydro-[1,1′-biphenyl]-3-yl)-5-cyclopropyl-1H-pyrazole-4-carboxylic Acid]
10 to 100 nM | 100 to 1000 nM | CC(C)CCC1CCCN1C(=O)C1CCCC(c2cccc(-n3ncc(C(=O)O)c3C3CC3)c2)C1 (racemic) [Example 11, 5-Cyclopropyl-1-(3-{3-[2-(3-methylbutyl)pyrrolidine-1-carbonyl]cyclohexyl}phenyl)-1H-pyrazole-4-carboxylic Acid]
100 to 1000 nM | 1000 to 10000 nM | CCCCC1CCCC1N(C)C(=O)C1CCCC(c2cccc(-n3ncc(C(=O)O)c3C3CC3)c2)C1 (stereo not drawn) [Example 41, 1-(3-(3-((2-Butylcyclopentyl)(methyl)carbamoyl)cyclohexyl)phenyl)-5-cyclopropyl-1H-pyrazole-4-carboxylic Acid]
10 to 100 nM | 100 to 1000 nM | Cn1cc(C2CC2c2c(C(=O)O)cnn2-c2cccc([C@H]3CCC[C@H](n4ncc5c4C(C)(C)CC5)C3)c2)nn1 (stereo partly drawn) [Example 40, 1-(3-((1,3-trans)-3-(6,6-Dimethyl-5,6-dihydrocyclopenta[c]pyrazol-1(4H)-yl)cyclohexyl)phenyl)-5-(2-(1-methyl-1H-1,2,3-triazol-4-yl)cyclopropyl)-1H-pyrazole-4-carboxylic Acid]
10 to 100 nM | 100 to 1000 nM | O=C(O)c1cnn(-c2cccc(C3CCCC(C(=O)N4CCCC4C4CC4)C3)c2)c1C1CC1 (racemic) [Example 12, 5-cyclopropyl-1-{3-[3-(2-cyclopropylpyrrolidine-1-carbonyl)cyclohexyl]phenyl}-1H-pyrazole-4-carboxylic Acid]
10 to 100 nM | 100 to 1000 nM | CCCCC1CCCN1C(=O)C1CCCC(c2cccc(-n3ncc(C(=O)O)c3C3CC3)c2)C1 (racemic) [Example 8c, 1-{3-[3-(2-Butylpyrrolidine-1-carbonyl)cyclohexyl]phenyl}-5-cyclopropyl-1H-pyrazole-4-carboxylic Acid]
10 to 100 nM | 10 to 100 nM | CCCC[C@@H]1CCCN1C(=O)[C@H]1CCC[C@@H](c2cccc(-n3ncc(C(=O)O)c3C3CC3)c2)C1 [Example 17f, 1-{3-[(1R,3S)-3-[(2R)-2-Butylpyrrolidine-1-carbonyl]cyclohexyl]phenyl}-5-cyclopropyl-1H-pyrazole-4-carboxylic Acid]
1000 to 10000 nM | 10000 to 100000 nM | CCCCC1CCc2cnn([C@@H]3CCC[C@@H](c4cccc(-n5ncc(C(=O)O)c5C5CC5)c4)C3)c21 (stereo partly drawn) [Example 38, 1-(3-((1,3-trans)-3-(6-Butyl-5,6-dihydrocyclopenta[c]pyrazol-1(4H)-yl)cyclohexyl)phenyl)-5-cyclopropyl-1H-pyrazole-4-carboxylic Acid]
10 to 100 nM | 10 to 100 nM | CCOC[C@@H]1CCCN1C(=O)C1CCCC(c2cccc(-n3ncc(C(=O)O)c3C3CC3)c2)C1 (single isomer, unassigned) [Example 18g]
10 to 100 nM | 100 to 1000 nM | CCCCC1CCCN1C(=O)C1CCCC(c2cccc(-n3ncc(C(=O)O)c3C3CC3c3cn(C)nn3)c2)C1 (stereo not drawn) [Example 42, 1-(3-(3-(2-Butylpyrrolidine-1-carbonyl)cyclohexyl)phenyl)-5-(2-(1-methyl-1H-1,2,3-triazol-4-yl)cyclopropyl)-1H-pyrazole-4-carboxylic Acid]
10 to 100 nM | 10 to 100 nM | Cn1cc(C2CC2c2c(C(=O)O)cnn2-c2cccc([C@@H]3CCC[C@H](n4ncc5c4C(C)(C)CC5)C3)c2)nn1 (stereo partly drawn) [Example 39, 1-(3-((1R,3S)-3-(6,6-Dimethyl-5,6-dihydrocyclopenta[c]pyrazol-1(4H)-yl)cyclohexyl)phenyl)-5-(2-(1-methyl-1H-1,2,3-triazol-4-yl)cyclopropyl)-1H-pyrazole-4-carboxylic Acid]
1000 to 10000 nM | 10000 to 100000 nM | CC1(C)CCc2cnn([C@@H]3CCC[C@@H](c4cccc(-n5ncc(C(=O)O)c5C5CC5)c4)C3)c21 (racemic) [Example 23, 5-Cyclopropyl-1-(3-(t-3-(6,6-dimethyl-5,6-dihydrocyclopenta[c]pyrazol-1(4H)-yl)cyclohexyl)phenyl)-1H-pyrazole-4-carboxylic Acid]
